The source made the active and inactive calls. The calls are words filed in the database; no cut-off is given here.

The test system of series [1] is LX-2. As to the kind of experiment: Anti-hepatic fibrosis activity in human LX2 cells assessed as inhibition of TGFbeta1-induced fibronectin expression measured after 48 hrs by immunofluorescence analysis. Type of series: functional, cell-based. The settings on record: dose 20-40 µM.
Series [2] has as its system LX2. As to the kind of experiment: Inhibition of TGF-beta1/Smad2/3 signaling in TGF-beta1-stimulated human LX-2 cells assessed as reduction in Smad2 phosphorylation at 20 to 40 uM by western blot analysis. Type of series: cell-based. The settings on record: dose 20-40 µM. On the technique in general: A western blot detects proteins with antibodies after separation by electrophoresis.

Series [3] relates to LX2. The series can be described thus: Inhibition of TGF-beta1/Smad2/3 signaling in TGF-beta1-stimulated human LX-2 cells assessed as reduction in Smad2/3 translocation from cytoplasm to nucleus at 40 uM by DAPI staining based fluorescence analysis. Type of series: cell-based.
A short description of series [4]: Cytotoxicity against human LX2 cells at 20 to 40 uM. Format: toxicity, cell-based. The settings on record: lx-2, 40 µM, dose 20-40 µM.
The test system of series [5] is LX-2. The series can be described thus: Anti-hepatic fibrosis activity in human LX2 cells assessed as inhibition of TGFbeta1-induced alpha-SMA expression at 20 to 40 uM measured after 48 hrs by western blot analysis. Particulars: dose 20-40 µM. Format: functional, cell-based.
Series [6] deals with LX-2. As to the kind of experiment: Anti-hepatic fibrosis activity in human LX2 cells assessed as inhibition of TGFbeta1-induced collagen I expression at 20 to 40 uM measured after 48 hrs by western blot analysis. Type of series: functional, cell-based. The settings on record: dose 20-40 µM.
The test system of series [7] is LX2. As to the kind of experiment: Inhibition of TGF-beta1/Smad2/3 signaling in TGF-beta1-stimulated human LX-2 cells assessed as reduction in Smad3 phosphorylation at 20 to 40 uM by western blot analysis. Type of series: cell-based. The settings on record: dose 20-40 µM.

`COC(=O)C1=CC[C@H]2[C@@]3(CC[C@@H](C)[C@]24C[C@@H](c2occc2[C@H]2C[C@@]56[C@H](O2)O[C@]2(CC[C@H]5C)C(C(=O)OC)=CCC[C@H]62)c2ccoc2[C@@H]4O3)C1`: the Activity result with LX-2 [1] was “Dose-Dependent Effect”; in series [4], “Non-Toxic”. The inhibition result in the series on LX2 [2], with LX2 [3] and with LX2 [7] was “Active” throughout. Further, the result with LX-2 [5] and with LX-2 [6] was Active.

(Values after ChEMBL document CHEMBL5233292, “Biscroyunoid A, an Anti-Hepatic Fibrotic 19-nor-Clerodane Diterpenoid Dimer with a C-16-C-12' Linkage from Croton yunnanensis” (J Nat Prod, 2023).)
